Each structure is given as a SMILES string. Structures can show the parent of a compound that is named as a salt.

Broadly, the melting point is the temperature of the solid-liquid transition. In the case of `COc1ccc2ncc(Cl)c(OC[C@@H]3CC[C@@H](NCc4cc5c(cn4)OCCO5)CO3)c2c1` (as salt: hydrochloride), the melting point worked out at 191 °C.

On to `COc1ccc2nccc(NC(=O)[C@@H]3CC[C@@H](NCc4cc5c(cn4)OCCO5)CO3)c2n1` (as salt: hydrochloride), for which the melting point is > 230 °C (dec.).

`COc1ccc2ncc(Cl)c(NC(=O)[C@@H]3CC[C@@H](NCc4cc5c(cn4)OCCO5)CO3)c2c1` (as salt: hydrochloride) yielded a melting point of 220 °C.
